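Following 48 hours of exposure in 96-well plates, responses at five concentrations were used to interpolate endpoints linearly. TGI: concentration producing complete growth inhibition.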
Experiments:
Experiment in all cases: DTP human tumour cell line panel, 48 h
ACHN renal = tested on: ACHN renal
MDA-N = tested on: MDA-N
SK-OV-3 ovarian = tested on: SK-OV-3 ovarian
A498 renal = tested on: A498 renal
BT-549 breast = tested on: BT-549 breast
T-47D breast = tested on: T-47D breast
786-0 renal = tested on: 786-0 renal
SW-620 colon = tested on: SW-620 colon
RPMI-8226 leukemia = tested on: RPMI-8226 leukemia
MDA-MB-435 = tested on: MDA-MB-435
NCI-H522 lung = tested on: NCI-H522 lung
MOLT-4 leukemia = tested on: MOLT-4 leukemia
A549 NSCLC = tested on: A549 NSCLC
K-562 leukemia = tested on: K-562 leukemia
EKVX NSCLC = tested on: EKVX NSCLC
HT29 colon = tested on: HT29 colon
MDA-MB-231 breast = tested on: MDA-MB-231 breast
OVCAR-4 ovarian = tested on: OVCAR-4 ovarian
UACC-257 melanoma = tested on: UACC-257 melanoma
HL-60(TB) leukemia = tested on: HL-60(TB) leukemia
HOP-92 NSCLC = tested on: HOP-92 NSCLC
UACC-62 melanoma = tested on: UACC-62 melanoma
TK-10 renal = tested on: TK-10 renal
HCC-2998 colon = tested on: HCC-2998 colon
M14 melanoma = tested on: M14 melanoma
KM12 colon = tested on: KM12 colon
NCI-H460 lung = tested on: NCI-H460 lung
MALME-3M melanoma = tested on: MALME-3M melanoma
COLO 205 colon = tested on: COLO 205 colon
LOX IMVI melanoma = tested on: LOX IMVI melanoma
MCF7 breast = tested on: MCF7 breast
HOP-62 NSCLC = tested on: HOP-62 NSCLC
UO-31 renal = tested on: UO-31 renal
HS 578T breast = tested on: HS 578T breast
SF-268 CNS = tested on: SF-268 CNS
OVCAR-8 ovarian = tested on: OVCAR-8 ovarian
IGROV1 ovarian = tested on: IGROV1 ovarian
NCI-H226 lung = tested on: NCI-H226 lung
SK-MEL-2 melanoma = tested on: SK-MEL-2 melanoma
OVCAR-5 ovarian = tested on: OVCAR-5 ovarian
SF-295 CNS = tested on: SF-295 CNS
OVCAR-3 ovarian = tested on: OVCAR-3 ovarian
CAKI-1 renal = tested on: CAKI-1 renal
SN12C renal = tested on: SN12C renal
SK-MEL-28 melanoma = tested on: SK-MEL-28 melanoma
DU-145 prostate = tested on: DU-145 prostate
SNB-19 CNS = tested on: SNB-19 CNS
HCT-15 colon = tested on: HCT-15 colon
RXF 393 renal = tested on: RXF 393 renal
NCI-H23 lung = tested on: NCI-H23 lung
SNB-75 CNS = tested on: SNB-75 CNS
U251 CNS = tested on: U251 CNS
HCT-116 colon = tested on: HCT-116 colon
SK-MEL-5 melanoma = tested on: SK-MEL-5 melanoma
NCI/ADR-RES ovarian = tested on: NCI/ADR-RES ovarian
PC-3 prostate = tested on: PC-3 prostate
SF-539 CNS = tested on: SF-539 CNS
CCRF-CEM leukemia = tested on: CCRF-CEM leukemia

Measured: TGI

OCCNc1ncnc2nc[nH]c12
> 100 µM: ACHN renal | MDA-N | SK-OV-3 ovarian | A498 renal | BT-549 breast | T-47D breast | 786-0 renal | SW-620 colon | RPMI-8226 leukemia | MDA-MB-435 | NCI-H522 lung | MOLT-4 leukemia | A549 NSCLC | K-562 leukemia | EKVX NSCLC | HT29 colon | MDA-MB-231 breast | OVCAR-4 ovarian | UACC-257 melanoma | HL-60(TB) leukemia | HOP-92 NSCLC | UACC-62 melanoma | TK-10 renal | HCC-2998 colon | M14 melanoma | KM12 colon | NCI-H460 lung | MALME-3M melanoma | COLO 205 colon | LOX IMVI melanoma | MCF7 breast | HOP-62 NSCLC | UO-31 renal | HS 578T breast | SF-268 CNS | OVCAR-8 ovarian | IGROV1 ovarian | NCI-H226 lung | SK-MEL-2 melanoma | OVCAR-5 ovarian | SF-295 CNS | OVCAR-3 ovarian | CAKI-1 renal | SN12C renal | SK-MEL-28 melanoma | DU-145 prostate | SNB-19 CNS | HCT-15 colon | RXF 393 renal | NCI-H23 lung | SNB-75 CNS | U251 CNS | HCT-116 colon | SK-MEL-5 melanoma | NCI/ADR-RES ovarian | PC-3 prostate

COc1cc2c(cc1OC)C1C(O)C(OC)C(Br)C3(Br)CCN(C2)C13 (configuration not stated)
> 100 µM: ACHN renal | MDA-N | SK-OV-3 ovarian | A498 renal | BT-549 breast | T-47D breast | 786-0 renal | SW-620 colon | RPMI-8226 leukemia | MDA-MB-435 | NCI-H522 lung | MOLT-4 leukemia | A549 NSCLC | EKVX NSCLC | HT29 colon | MDA-MB-231 breast | OVCAR-4 ovarian | UACC-257 melanoma | HL-60(TB) leukemia | HOP-92 NSCLC | UACC-62 melanoma | TK-10 renal | HCC-2998 colon | M14 melanoma | SF-539 CNS | KM12 colon | NCI-H460 lung | MALME-3M melanoma | COLO 205 colon | MCF7 breast | HOP-62 NSCLC | UO-31 renal | HS 578T breast | SF-268 CNS | OVCAR-8 ovarian | IGROV1 ovarian | NCI-H226 lung | SK-MEL-2 melanoma | OVCAR-5 ovarian | SF-295 CNS | OVCAR-3 ovarian | CAKI-1 renal | SN12C renal | SK-MEL-28 melanoma | DU-145 prostate | CCRF-CEM leukemia | SNB-19 CNS | HCT-15 colon | RXF 393 renal | NCI-H23 lung | SNB-75 CNS | U251 CNS | HCT-116 colon | SK-MEL-5 melanoma | NCI/ADR-RES ovarian | PC-3 prostate

From PubChem BioAssay (NCI)
